Data as given in patent publication US10092002B2, “Herbicidal composition comprising nicosulfuron or its salt and S -metolachlor or its salt” (ISHIHARA SANGYO KAISHA, LTD., priority 2011, dated 2018).

Assays:
Type in all cases: in vivo
[1] = test system: common cocklebur (Xanthium strumarium L.); assay: Test Example 1: foliar treatment of common cocklebur in pots, visual growth inhibition rate; settings: Xanthium strumarium, foliar treatment at 4.3 to 4.8-leaf stage, 22nd day after treatment, read-out: Growth inhibition rate (%) of common cocklebur, Measured value
Text: When the herbicidal activity in a case where two active ingredients are combined, is larger than the simple sum of the respective herbicidal activities of the two active ingredients (the expected activity), it is called a synergistic effect. The activity expected by the combination of two active ingredients can be calculated as follows (Colby S. R., “Weed”, vol. 15, p. 20-22, 1967). E1=α+β-(α×β÷100) In a case where three active ingredients are combined, the activity can be similarly calculated as follows. […] Upland field soil was put into a 1/1,000,000 ha pot, and seeds of common cocklebur (Xanthium strumarium L.) were sown. […] Dual Gold, manufactured by Syngenta Crop Protection AG), SC agent containing terbuthylazine as an active ingredient (tradename: Click, manufactured by BASF), SC agent containing mesotrione as an active ingredient (tradename: Callisto, manufactured by Syngenta Crop Protection AG) and WG agent containing prosulfuron as an active ingredient (tradename: Peak, manufactured by Syngenta Crop Protection AG) were diluted with water in an amount corresponding to 1,000 Uha, and applied for foliar treatment by a small sprayer. On the 22nd day after treatment, the state of growth of the common cocklebur was visually observed to determine the growth inhibition rate in accordance with the following evaluation standard. The growth inhibition rate (%) (measured value) and the growth inhibition rate (%) (calculated value) calculated by the Colby's formula are shown in Table 1.

[2] = test system: wild oat (Avena fatua L.); assay: Test Example 3: soil treatment, wild oat, visual growth inhibition rate; settings: Avena fatua, soil treatment the day after sowing, 14th day after treatment, read-out: Growth inhibition rate (%) of wild oat, Measured value
Text: When the herbicidal activity in a case where two active ingredients are combined, is larger than the simple sum of the respective herbicidal activities of the two active ingredients (the expected activity), it is called a synergistic effect. The activity expected by the combination of two active ingredients can be calculated as follows (Colby S. R., “Weed”, vol. 15, p. 20-22, 1967). […] In a case where three active ingredients are combined, the activity can be similarly calculated as follows. […] On the 22nd day after treatment, the state of growth of the common cocklebur was visually observed to determine the growth inhibition rate in accordance with the following evaluation standard. The growth inhibition rate (%) (measured value) and the growth inhibition rate (%) (calculated value) calculated by the Colby's formula are shown in Table 1. […] On the 14th day after treatment, the state of growth of the wild oat was visually observed to determine the growth inhibition rate.

[3] = test system: sunn-hemp (Crotalaria juncea L.); assay: Test Example 4: soil treatment, sunn-hemp, visual growth inhibition rate; settings: Crotalaria juncea, soil, read-out: Growth inhibition rate (%) of sunn-hemp, Measured value
Text: In a case where three active ingredients are combined, the activity can be similarly calculated as follows. E2=(α+β+γ)−(αβ+αγ+βγ)/100+(αβγ)/10000 where α: growth inhibition rate when treated with x (g/ha) of herbicide X,
Growth inhibition rate (%)=0 (equivalent to the non-treated area) to 100 (complete kill)
Upland field soil was put into a 1/300,000 ha pot, and seeds of sunn-hemp (Crotalaria juncea L.) were sown.

`CCNc1nc(Cl)nc(NC(C)(C)C)n1` [Terbuthylazine, N^2-tert-butyl-6-chloro-N^4-ethyl-1,3,5-triazine-2,4-diamine] was tested, and the inhibition at 500 g/ha ([1]; dose 500 g/ha) was 10%, the inhibition at 250 g/ha ([2]; dose 250 g/ha) was 25% and the inhibition at 1500 g/ha ([2]; dose 1500 g/ha) was 5%.

With `CS(=O)(=O)c1ccc(C(=O)C2C(=O)CCCC2=O)c([N+](=O)[O-])c1` [Mesotrione, 2-(4-mesyl-2-nitrobenzoyl)cyclohexane-1,3-dione] the inhibition at 50 g/ha ([1]; dose 50 g/ha) was 0%, the inhibition at 25 g/ha ([2]; dose 25 g/ha) was 0% and the inhibition at 150 g/ha ([2]; dose 150 g/ha) was 5%.

Work on `COc1nc(C)nc(NC(=O)NS(=O)(=O)c2ccccc2CCC(F)(F)F)n1` [Prosulfuron, 1-(4-methoxy-6-methyl-1,3,5-triazin-2-yl)-3-[2-(3,3,3-trifluoropropyl)phenylsulfonyl]urea] yielded an inhibition at 15 g/ha ([1]; dose 15 g/ha) of 88%, an inhibition at 2.5 g/ha ([2]; dose 2.5 g/ha) of 25% and an inhibition at 50 g/ha ([2]; dose 50 g/ha) of 0%.

For `COCCOCc1nc(C(F)(F)F)ccc1C(=O)C1=C(O)C2CCC(C2)C1=O` (centres unmarked) [Bicyclopyrone, 4-hydroxy-3-{2-[(2-methoxyethoxy)methyl]-6-(trifluoromethyl)-3-pyridylcarbonyl}bicyclo[3.2.1]oct-3-en-2-one], the inhibition at 25 g/ha [3] was 0% and the inhibition at 150 g/ha [3] was 20%.
